Results reported in ChEMBL document CHEMBL1122656, “Synthesis and antiviral evaluation of carbocyclic analogues of ribofuranosides of 2-amino-6-substituted-purines and of 2-amino-6-substituted-8-azapurines” (1984).
Values after ≈ are worked out from the molar mass of the structure shown.

What was measured:
Type in all cases: functional
HEp-2 [1] = assay: In vitro inhibition of cytopathogenicity induced by HF strain of Herpes Simplex Virus (HSV-1) replicating in human epidermoid carcinoma no.2 (H.Ep-2) cells
Mus musculus [2] = assay: In vivo efficacy against L1210 leukemic cells, inoculated intraperitoneally in mice at schedule - q.d. 1-9. Dose 100 mg/kg; conditions: route intraperitoneal
[3] = Cytotoxicity to cancer cells (KB cells) in culture was determined and the effective dose that causes 50 % cytotoxicity was reported.; conditions: Homo sapiens, Cancer cell lines; read-out: ED50 (the source's name)
Mus musculus [4] = assay: In vivo efficacy against L1210 leukemic cells, inoculated intraperitoneally in mice at schedule - q.d. 1-9. Dose 25 mg/kg; conditions: route intraperitoneal
Mus musculus [5] = assay: In vivo efficacy against L1210 leukemic cells, inoculated intraperitoneally in mice at schedule - q.d. 1-9. Dose 50 mg/kg; conditions: route intraperitoneal
Mus musculus [6] = assay: In vivo efficacy against L1210 leukemic cells, inoculated intraperitoneally in mice at schedule - q.d. 1-9. Dose 200 mg/kg.*-toxic; conditions: route intraperitoneal
Mus musculus [7] = assay: In vivo efficacy against L1210 leukemic cells, inoculated intraperitoneally in mice at schedule - q.d. 1-9. Dose 100 mg/kg*-toxic; conditions: route intraperitoneal
HEp-2 [8] = assay: In vitro inhibition of cytopathogenicity induced by Lederle Chorioallantoic strain of vaccinia virus replicating in human epidermoid carcinoma
Mus musculus [9] = assay: In vivo efficacy against L1210 leukemic cells, inoculated intraperitoneally in mice at schedule - day 1. Dose 400 mg/kg; conditions: route intraperitoneal
HEp-2 [10] = assay: In vitro inhibition of cytopathogenicity induced by Lederle Chorioallantoic strain of vaccinia virus replicating in human epidermoid carcinoma no.2 (H.Ep-2) cells
Mus musculus [11] = assay: In vivo efficacy against L1210 leukemic cells, inoculated intraperitoneally in mice at schedule - q.d. 1-9. Dose 400 mg/kg.; conditions: route intraperitoneal
Mus musculus [12] = assay: In vivo efficacy against L1210 leukemic cells, inoculated intraperitoneally in mice at schedule - q.d. 1-9. Dose 9 mg/kg; conditions: route intraperitoneal
Mus musculus [13] = assay: In vivo efficacy against L1210 leukemic cells, inoculated intraperitoneally in mice at schedule - q.d. 1,5,9. Dose 19 mg/kg; conditions: route intraperitoneal
Mus musculus [14] = assay: In vivo efficacy against L1210 leukemic cells, inoculated intraperitoneally in mice at schedule - q.d. 1-9. Dose 38 mg/kg*-toxic; conditions: route intraperitoneal
Mus musculus [15] = assay: In vivo efficacy against L1210 leukemic cells, inoculated intraperitoneally in mice at schedule - q.d. 1,5,9. Dose 38 mg/kg; conditions: route intraperitoneal
Mus musculus [16] = assay: In vivo efficacy against L1210 leukemic cells, inoculated intraperitoneally in mice at schedule - q.d. 1,5,9. Dose 75 mg/kg*-Diiference in weight change(T-C)by day 5 was -5.6g at 150 mg/kg &[…] at 75 mg/kg
Mus musculus [17] = assay: In vivo efficacy against L1210 leukemic cells, inoculated intraperitoneally in mice at schedule - q.d. 1-9. Dose 19 mg/kg*-toxic; conditions: route intraperitoneal
Mus musculus [18] = assay: In vivo efficacy against L1210 leukemic cells, inoculated intraperitoneally in mice at schedule - q.d. 1. Dose 75 mg/kg*-Diiference in weight change(T-C)by day 5 was -5.6g at 150 mg/kg &[…] at 75 mg/kg
Mus musculus [19] = assay: In vivo efficacy against L1210 leukemic cells, inoculated intraperitoneally in mice at schedule - q.d. 1 Dose 150 mg/kg.*-Diiference in weight change(T-C)by day 5 was -5.6g at 150 mg/kg &[…] at 75 mg/kg

| SMILES | Virus rating (HEp-2 [1]) | EC50 [3] | MIC (HEp-2 [1]) | T/C (Mus musculus [9]) | other results |
| --- | --- | --- | --- | --- | --- |
| CSc1nc(N)nc2c1nnn2C1CC(CO)C(O)C1O (stereo not given) | 0 VR | > 100 µg/mL | – | – | T/C (Mus musculus [2]): 94% |
| Nc1nc(N)c2ncn(C3CC(CO)C(O)C3O)c2n1 (stereo not given) | 4.6 VR | 19 µg/mL (≈ 67.8 µM) | 0.3 µg/mL (≈ 1.07 µM) | – | T/C (Mus musculus [4]): 102%; T/C (Mus musculus [5]): 89%; T/C (Mus musculus [6]): 67%; T/C (Mus musculus [7]): 70%; MIC (HEp-2 [8]): 2.3 µg/mL (≈ 8.21 µM); Virus rating (HEp-2 [8]): 3.8 VR |
| Nc1nc(Cl)c2nnn(C3CC(CO)C(O)C3O)c2n1 (stereo not given) | 0.9 VR | 8 µg/mL (≈ 26.6 µM) | 81 µg/mL (≈ 269 µM) | 111% | Virus rating (HEp-2 [8]): 0.6 VR |
| Nc1nc(Cl)c2ncn(C3CC(CO)C(O)C3O)c2n1 (stereo not given) | 1.7 VR | > 100 µg/mL | 10 µg/mL (≈ 33.4 µM) | 104% | T/C (Mus musculus [5]): 101%; T/C (Mus musculus [6]): 67%; T/C (Mus musculus [7]): 85%; MIC (HEp-2 [10]): 20 µg/mL (≈ 66.7 µM); Virus rating (HEp-2 [10]): 1.2 VR |
| Nc1nc(N)c2nnn(C3CC(CO)C(O)C3O)c2n1 (stereo not given) | 1.4 VR | > 100 µg/mL | 100 µg/mL (≈ 356 µM) | 97% | – |
| Nc1nc(O)c2nnn(C3CC(CO)C(O)C3O)c2n1 (stereo not given) | 0 VR | > 100 µg/mL | – | 109% | – |
| CNc1nc(N)nc2c1ncn2C1CC(CO)C(O)C1O (stereo not given) | 1.3 VR | 18 µg/mL (≈ 61.2 µM) | 320 µg/mL (≈ 1090 µM) | – | – |
| Nc1nc(S)c2ncn(C3CC(CO)C(O)C3O)c2n1 (stereo not given) | 0 VR | 50 µg/mL (≈ 168 µM) | – | – | T/C (Mus musculus [11]): 99% |
| CSc1nc(N)nc2c1ncn2C1CC(CO)C(O)C1O (stereo not given) | 0.1 VR | > 100 µg/mL | – | – | T/C (Mus musculus [2]): 108% |
| Nc1nc(O)c2ncn(C3CC(CO)C(O)C3O)c2n1 (stereo not given) | 0 VR | > 100 µg/mL | – | – | T/C (Mus musculus [12]): 101%; T/C (Mus musculus [13]): 94%; T/C (Mus musculus [14]): 71%; T/C (Mus musculus [15]): 92%; Virus rating (HEp-2 [8]): 0 VR; T/C (Mus musculus [16]): 70%; T/C (Mus musculus [17]): 83%; T/C (Mus musculus [18]): 88%; T/C (Mus musculus [19]): 75% |
| Nc1ncnc2c1ncn2[C@@H]1O[C@H](CO)[C@@H](O)[C@@H]1O [VIDARABINE] | 2.2 VR | – | 10 µg/mL (≈ 37.4 µM) | – | – |
